Results as given in patent publication US8772250B2, “Compositions and methods for treating ischemia and ischemia-reperfusion injury” (Ischemix, LLC, priority 2010, dated 2014).
Read-outs that look alike come from different tables or passages of the source.

Assay: Pharmacokinetic evaluation in humans
Assay type: in vivo
Conditions: human; for clearance / Cmax / Vd / half-life / AUC(0-t) / AUC(0-inf): plasma
Experimental: Plasma and urine RLip-EA-OH concentrations were measured at BASi, Inc. (West Lafayette, Ind.) using a LC/MS/MS method with positive turbo ion spray, in the multiple reaction-monitoring mode. The quantifiable range for human plasma was 1.00 to 500 ng/mL and QC samples were included at 3.00, 75.0 and 375 ng/mL.
The PK population included subjects who received RLip-EA-OH and had ≧1 post-dose PK measurement. […] Plasma samples from 24 subjects (6 RLip-EA-OH subjects per cohort) were analyzed (Tables 16 and 17).

C[C@H](NC(=O)[C@H](CCC(=O)O)NC(=O)CCCC[C@@H]1CCSS1)C(=O)O [RLip-EA-OH, N-(R)-lipoyl-L-glutamyl-L- alanine]
clearance (150 mg, compartmental, read-out: CL, Median (converted)): 363 mL/min
clearance (150 mg, compartmental, read-out: CL, Minimum, maximum): 260 to 512 mL/min
Cmax (150 mg, compartmental, read-out: Estimated Cmax, Mean (SD)): 18100 ng/mL
Cmax (150 mg, compartmental, read-out: Estimated Cmax, Median): 18400 ng/mL
Cmax (150 mg, compartmental, read-out: Estimated Cmax, Minimum, maximum): 14200 to 20600 ng/mL
Vd (150 mg, compartmental, read-out: Vss, Mean (SD)): 13 L
Vd (150 mg, compartmental, read-out: Vss, Median): 13 L
Vd (150 mg, compartmental, read-out: Vss, Minimum, maximum): 9 to 17 L
half-life (150 mg, compartmental, read-out: t1/2, Mean (SD) (converted)): 108 min
half-life (150 mg, compartmental, read-out: t1/2, Median (converted)): 84 min
half-life (150 mg, compartmental, read-out: t1/2, Minimum, maximum): 66 to 198 min
AUC(0-t) (150 mg, noncompartmental, read-out: AUC0-t, Mean (SD)): 6980 ng·h/mL
AUC(0-t) (150 mg, noncompartmental, read-out: AUC0-t, Median): 6900 ng·h/mL
AUC(0-t) (150 mg, noncompartmental, read-out: AUC0-t, Minimum, maximum): 4970 to 9330 ng·h/mL
AUC(0-inf) (150 mg, noncompartmental, read-out: AUCinf, Mean (SD)): 6990 ng·h/mL
AUC(0-inf) (150 mg, noncompartmental, read-out: AUCinf, Median): 6920 ng·h/mL
AUC(0-inf) (150 mg, noncompartmental, read-out: AUCinf, Minimum, maximum): 4980 to 9340 ng·h/mL
clearance (150 mg, noncompartmental, read-out: CL, Mean (SD) (converted)): 372 mL/min
clearance (150 mg, noncompartmental, read-out: CL, Median (converted)): 363 mL/min
clearance (150 mg, noncompartmental, read-out: CL, Minimum, maximum): 268 to 502 mL/min
Cmax (150 mg, noncompartmental, read-out: Cmax, Mean (SD)): 17100 ng/mL
Cmax (150 mg, noncompartmental, read-out: Cmax, Median): 17000 ng/mL
Cmax (150 mg, noncompartmental, read-out: Cmax, Minimum, maximum): 14900 to 20000 ng/mL
Vd (150 mg, noncompartmental, read-out: Vss, Mean (SD)): 13.6 L
Vd (150 mg, noncompartmental, read-out: Vss, Median): 13.2 L
Vd (150 mg, noncompartmental, read-out: Vss, Minimum, maximum): 9.9 to 16.6 L
half-life (150 mg, noncompartmental, read-out: t1/2, Mean (SD) (converted)): 73.8 min
half-life (150 mg, noncompartmental, read-out: t1/2, Median (converted)): 75 min
half-life (150 mg, noncompartmental, read-out: t1/2, Minimum, maximum): 58.2 to 91.2 min
AUC(0-inf) (300 mg, compartmental, read-out: AUCinf, Mean (SD)): 16400 ng·h/mL
AUC(0-inf) (300 mg, compartmental, read-out: AUCinf, Median): 16400 ng·h/mL
AUC(0-inf) (300 mg, compartmental, read-out: AUCinf, Minimum, maximum): 11500 to 22600 ng·h/mL
clearance (300 mg, compartmental, read-out: CL, Mean (SD) (converted)): 323 mL/min
clearance (300 mg, compartmental, read-out: CL, Median (converted)): 305 mL/min
clearance (300 mg, compartmental, read-out: CL, Minimum, maximum): 222 to 435 mL/min
Cmax (300 mg, compartmental, read-out: Estimated Cmax, Mean (SD)): 46300 ng/mL
Cmax (300 mg, compartmental, read-out: Estimated Cmax, Median): 43400 ng/mL
Cmax (300 mg, compartmental, read-out: Estimated Cmax, Minimum, maximum): 31000 to 70100 ng/mL
Vd (300 mg, compartmental, read-out: Vss, Mean (SD)): 11 L
Vd (300 mg, compartmental, read-out: Vss, Median): 11 L
Vd (300 mg, compartmental, read-out: Vss, Minimum, maximum): 8 to 16 L
half-life (300 mg, compartmental, read-out: t1/2, Mean (SD) (converted)): 90 min
half-life (300 mg, compartmental, read-out: t1/2, Median (converted)): 72 min
half-life (300 mg, compartmental, read-out: t1/2, Minimum, maximum): 60 to 150 min
AUC(0-t) (300 mg, noncompartmental, read-out: AUC0-t, Mean (SD)): 16500 ng·h/mL
AUC(0-t) (300 mg, noncompartmental, read-out: AUC0-t, Median): 16500 ng·h/mL
AUC(0-t) (300 mg, noncompartmental, read-out: AUC0-t, Minimum, maximum): 11600 to 23100 ng·h/mL
AUC(0-inf) (300 mg, noncompartmental, read-out: AUCinf, Mean (SD)): 16500 ng·h/mL
AUC(0-inf) (300 mg, noncompartmental, read-out: AUCinf, Median): 16500 ng·h/mL
AUC(0-inf) (300 mg, noncompartmental, read-out: AUCinf, Minimum, maximum): 11600 to 23100 ng·h/mL
clearance (300 mg, noncompartmental, read-out: CL, Mean (SD) (converted)): 322 mL/min
clearance (300 mg, noncompartmental, read-out: CL, Median (converted)): 303 mL/min
clearance (300 mg, noncompartmental, read-out: CL, Minimum, maximum): 217 to 430 mL/min
Cmax (300 mg, noncompartmental, read-out: Cmax, Mean (SD)): 42200 ng/mL
Cmax (300 mg, noncompartmental, read-out: Cmax, Median): 42200 ng/mL
Cmax (300 mg, noncompartmental, read-out: Cmax, Minimum, maximum): 32000 to 58100 ng/mL
Vd (300 mg, noncompartmental, read-out: Vss, Mean (SD)): 11.7 L
Vd (300 mg, noncompartmental, read-out: Vss, Median): 11.1 L
Vd (300 mg, noncompartmental, read-out: Vss, Minimum, maximum): 8.9 to 15.1 L
half-life (300 mg, noncompartmental, read-out: t1/2, Mean (SD) (converted)): 87 min
half-life (300 mg, noncompartmental, read-out: t1/2, Median (converted)): 68.4 min
half-life (300 mg, noncompartmental, read-out: t1/2, Minimum, maximum): 59.4 to 141 min
clearance (300 mg, read-out: CL (converted)): 322 mL/min
half-life (300 mg, read-out: mean terminal-phase t1/2 (converted)): 87 min
AUC(0-inf) (across doses 20 to 300 mg, read-out: AUCinf): 583 to 16500 ng·h/mL
half-life (at the mg dose, read-out: mean terminal-phase t1/2 (converted)): 51.6 min
Vd (decreased with increasing dose, read-out: Vss): 12 to 18 L
Vd (read-out: volume of distribution of the central compartment (Vc)): ~6 L
V1, Mean (SD) (20 mg, compartmental): 6.61 (3.20) L
V1, Median (20 mg, compartmental): 6.13 L
% Excreted Unchanged, Mean (SD) (20 mg, noncompartmental): 28.5 (9.6) %
% Excreted Unchanged, Median (20 mg, noncompartmental): 31.0%
V1, Mean (SD) (60 mg, compartmental): 6.62 (1.65) L
V1, Median (60 mg, compartmental): 6.69 L
% Excreted Unchanged, Mean (SD) (60 mg, noncompartmental): 39.1 (4.0) %
% Excreted Unchanged, Median (60 mg, noncompartmental): 40.6%
V1, Mean (SD) (150 mg, compartmental): 6.09 (1.42) L
V1, Median (150 mg, compartmental): 5.86 L
% Excreted Unchanged, Mean (SD) (150 mg, noncompartmental): 32.5 (13.9) %
% Excreted Unchanged, Median (150 mg, noncompartmental): 33.3%
V1, Mean (SD) (300 mg, compartmental): 4.91 (1.56) L
V1, Median (300 mg, compartmental): 5.59 L
% Excreted Unchanged, Mean (SD) (300 mg, noncompartmental): 43.6 (8.8) %
% Excreted Unchanged, Median (300 mg, noncompartmental): 46.3%
